The values that follow are results of earlier work, collected in US6653500B2, “Method for the manufacture of Anagrelide” (Shire US Inc., priority 2000, dated 2003).

Where two headings read alike, the source gives them in different places.

For data set [1] the following is noted: monkeys, radiolabeled base.
The conditions of data set [2]: solid.
For data set [3] the following is noted: humans, radiolabeled base.

`O=C1CN2Cc3c(ccc(Cl)c3Cl)N=C2N1` [compound III, 6,7-dichloro-1,5-dihydroimidazo[2,1-b]quinazolin-2(3H)-one]: the “solubility in most organic solvents” value is recorded as “low”. For the same molecule, in data set [1], the “absorption into blood plasma” value is reported as “complete absorption”. Moreover, the aqueous solubility result in data set [2] is given as “low”. Further, the “absorption into blood plasma” value in data set [3] was “complete absorption”.
